Measured values from patent US12528947B2, “Infrared-absorbing composition, film, optical filter, solid-state imaging element, image display device, and infrared sensor” (FUJIFILM Corporation, priority 2020, dated 2026).

What was measured:
[1] = Maximal absorption wavelength of infrared-absorbing coloring agent in good solvent; type: physicochemical; settings: coloring agent solution in dimethyl sulfoxide; for λmax: largest absorbance in 650 to 1500 nm; for Number of maximal absorption wavelengths: wavelength range 650 to 1500 nm
Procedure: Each infrared-absorbing coloring agent was dissolved in a solvent (good solvent) descried in the following table to prepare a coloring agent solution having a concentration of infrared-absorbing coloring agent of […], and absorption spectrum of the coloring agent solution was measured. The number of maximal absorption wavelengths existing in a wavelength range of 650 to 1500 nm and the wavelength (max) indicating the value having the largest absorbance are shown in the following table.

[2] = Evaluation of dissolved amount of infrared-absorbing coloring agent; type: physicochemical; settings: 25° C., after stirring for 1 hour
Procedure: The infrared-absorbing coloring agent shown in the tables below was added to a measurement solvent shown in the tables below, while the temperature was adjusted to 25° C. under atmospheric pressure. After stirring for 1 hour, the dissolved amount of each infrared-absorbing coloring agent in the measurement solvent at 25° C. was determined. The dissolved amount of the infrared-absorbing coloring agent was evaluated based on the following standard. A case of A was judged to be a good solvent, and a case of B was judged to be a poor solvent. The infrared-absorbing coloring agent exists as particles in the poor solvent. PGMEA described in the column of measurement solvent in the following tables is an abbreviation for propylene glycol monomethyl ether acetate. • A: dissolved amount of the infrared-absorbing coloring agent in 100 g of the measurement solvent at 25° C. was 0.1 g or more. • B: dissolved amount of the infrared-absorbing coloring agent in 100 g of the measurement solvent at 25° C. was less than 0.1 g.

In the case of `Cc1ccccc1-c1c2/c(=C(\C#N)c3nc4ccc(Br)cc4o3)n(B(c3ccccc3)c3ccccc3)c(-c3ccc(OCCCS(=O)(=O)O)cc3)c2/c(=C(\C#N)c2nc3ccc(Br)cc3o2)n1B(c1ccccc1)c1ccccc1` [Example A-7], the λmax [1] is reported as 747 nm, the “Number of maximal absorption wavelengths” value [1] is reported as 2 and the Solubility ([2]; Cyclopentanone) is reported as “B (dissolved amount of the infrared-absorbing coloring agent in 100 g of the measurement solvent at 25 °C was less than 0.1 g)”. For the same compound, the Solubility ([2]; Dimethyl sulfoxide) was “A (dissolved amount of the infrared-absorbing coloring agent in 100 g of the measurement solvent at 25 °C was 0.1 g or more)”, the Solubility ([2]; PGMEA) was “B (dissolved amount of the infrared-absorbing coloring agent in 100 g of the measurement solvent at 25 °C was less than 0.1 g)” and the Solubility ([2]; Water) was “B (dissolved amount of the infrared-absorbing coloring agent in 100 g of the measurement solvent at 25 °C was less than 0.1 g)”.
In the case of `Cc1ccccc1-c1c2/c(=C(\C#N)c3nc4ccccc4s3)n(B(c3ccccc3)c3ccccc3)c(-c3ccc(OCCCCS(=O)(=O)O)cc3)c2/c(=C(\C#N)c2nc3ccccc3s2)n1B(c1ccccc1)c1ccccc1` [Example A-4], the λmax [1] is reported as 779 nm, the “Number of maximal absorption wavelengths” value [1] is reported as 2 and the Solubility ([2]; Cyclopentanone) is reported as “B (dissolved amount of the infrared-absorbing coloring agent in 100 g of the measurement solvent at 25 °C was less than 0.1 g)”. For the same compound, the Solubility ([2]; Dimethyl sulfoxide) was “A (dissolved amount of the infrared-absorbing coloring agent in 100 g of the measurement solvent at 25 °C was 0.1 g or more)”, the Solubility ([2]; PGMEA) was “B (dissolved amount of the infrared-absorbing coloring agent in 100 g of the measurement solvent at 25 °C was less than 0.1 g)” and the Solubility ([2]; Water) was “B (dissolved amount of the infrared-absorbing coloring agent in 100 g of the measurement solvent at 25 °C was less than 0.1 g)”.
With `Cc1ccccc1-c1c2/c(=C(\C#N)c3nc4ccc(Cl)cc4o3)n(B(c3ccccc3)c3ccccc3)c(-c3ccc(OCCCS(=O)(=O)O)cc3)c2/c(=C(\C#N)c2nc3ccc(Cl)cc3o2)n1B(c1ccccc1)c1ccccc1` [Example A-5] the λmax [1] was 746 nm, the “Number of maximal absorption wavelengths” value [1] was 2 and the Solubility ([2]; Cyclopentanone) was “B (dissolved amount of the infrared-absorbing coloring agent in 100 g of the measurement solvent at 25 °C was less than 0.1 g)”. The Solubility ([2]; Dimethyl sulfoxide) was “A (dissolved amount of the infrared-absorbing coloring agent in 100 g of the measurement solvent at 25 °C was 0.1 g or more)”, the Solubility ([2]; PGMEA) was “B (dissolved amount of the infrared-absorbing coloring agent in 100 g of the measurement solvent at 25 °C was less than 0.1 g)” and the Solubility ([2]; Water) was “B (dissolved amount of the infrared-absorbing coloring agent in 100 g of the measurement solvent at 25 °C was less than 0.1 g)”.
In the case of `Cc1ccccc1-c1c2/c(=C(\C#N)c3nc4ccccc4s3)n(B(c3ccccc3)c3ccccc3)c(-c3ccc(OCCCN(C)C)cc3)c2/c(=C(\C#N)c2nc3ccccc3s2)n1B(c1ccccc1)c1ccccc1` [Example A-3], the λmax [1] is reported as 780 nm, the “Number of maximal absorption wavelengths” value [1] is reported as 2 and the Solubility ([2]; Cyclopentanone) is reported as “B (dissolved amount of the infrared-absorbing coloring agent in 100 g of the measurement solvent at 25 °C was less than 0.1 g)”. The Solubility ([2]; Dimethyl sulfoxide) was “A (dissolved amount of the infrared-absorbing coloring agent in 100 g of the measurement solvent at 25 °C was 0.1 g or more)”, the Solubility ([2]; PGMEA) was “B (dissolved amount of the infrared-absorbing coloring agent in 100 g of the measurement solvent at 25 °C was less than 0.1 g)” and the Solubility ([2]; Water) was “B (dissolved amount of the infrared-absorbing coloring agent in 100 g of the measurement solvent at 25 °C was less than 0.1 g)”.
For `Cc1ccccc1-c1c2/c(=C(\C#N)c3ccc4ccccc4n3)n(B(c3ccccc3)c3ccccc3)c(-c3ccc(OCCO)cc3)c2/c(=C(\C#N)c2ccc3ccccc3n2)n1B(c1ccccc1)c1ccccc1` [Comparative coloring agent 1, reference compound], the λmax [1] was 819 nm, the “Number of maximal absorption wavelengths” value [1] was 2 and the Solubility ([2]; Cyclopentanone) was “B (dissolved amount of the infrared-absorbing coloring agent in 100 g of the measurement solvent at 25 °C was less than 0.1 g)”. For the same compound, the Solubility ([2]; Dimethyl sulfoxide) was “A (dissolved amount of the infrared-absorbing coloring agent in 100 g of the measurement solvent at 25 °C was 0.1 g or more)”, the Solubility ([2]; PGMEA) was “B (dissolved amount of the infrared-absorbing coloring agent in 100 g of the measurement solvent at 25 °C was less than 0.1 g)” and the Solubility ([2]; Water) was “B (dissolved amount of the infrared-absorbing coloring agent in 100 g of the measurement solvent at 25 °C was less than 0.1 g)”.
In the case of `Cc1ccccc1-c1c2/c(=C(\C#N)c3ccc4ccccc4n3)n(B(c3ccccc3)c3ccccc3)c(-c3ccc(OCCCCS(=O)(=O)O)cc3)c2/c(=C(\C#N)c2ccc3ccccc3n2)n1B(c1ccccc1)c1ccccc1` [Example A-1], the λmax [1] is reported as 819 nm, the “Number of maximal absorption wavelengths” value [1] is reported as 2 and the Solubility ([2]; Cyclopentanone) is reported as “B (dissolved amount of the infrared-absorbing coloring agent in 100 g of the measurement solvent at 25 °C was less than 0.1 g)”. The Solubility ([2]; Dimethyl sulfoxide) was “A (dissolved amount of the infrared-absorbing coloring agent in 100 g of the measurement solvent at 25 °C was 0.1 g or more)”, the Solubility ([2]; PGMEA) was “B (dissolved amount of the infrared-absorbing coloring agent in 100 g of the measurement solvent at 25 °C was less than 0.1 g)” and the Solubility ([2]; Water) was “B (dissolved amount of the infrared-absorbing coloring agent in 100 g of the measurement solvent at 25 °C was less than 0.1 g)”.
For `COc1ccc2nc(/C(C#N)=c3/c4c(-c5ccccc5C)n(B(c5ccccc5)c5ccccc5)/c(=C(/C#N)c5nc6ccc(OC)cc6s5)c4c(-c4ccc(OCCCCS(=O)(=O)O)cc4)n3B(c3ccccc3)c3ccccc3)sc2c1` [Example A-6], the λmax [1] was 801 nm, the “Number of maximal absorption wavelengths” value [1] was 2 and the Solubility ([2]; Cyclopentanone) was “B (dissolved amount of the infrared-absorbing coloring agent in 100 g of the measurement solvent at 25 °C was less than 0.1 g)”. The Solubility ([2]; Dimethyl sulfoxide) was “A (dissolved amount of the infrared-absorbing coloring agent in 100 g of the measurement solvent at 25 °C was 0.1 g or more)”, the Solubility ([2]; PGMEA) was “B (dissolved amount of the infrared-absorbing coloring agent in 100 g of the measurement solvent at 25 °C was less than 0.1 g)” and the Solubility ([2]; Water) was “B (dissolved amount of the infrared-absorbing coloring agent in 100 g of the measurement solvent at 25 °C was less than 0.1 g)”.
